{
  "source": "patent US8207206B2",
  "about": "“(S,R)-3-phenyl-4,5 dihydro-5-isoxazole acetic acid-nitric oxide and use thereof as anti-cancer and antiviral agent” (OncoNOx APS, priority 2007, dated 2012)",
  "key": {"C6 cells [1]": {"tested_on": "C6 cells", "test": "ROS measurement by DHR fluorescence (flow cytometry)", "assay_type": "cell-based, rat", "details": "C6, 25 μg/ml, 24 h", "protocol": "The cells grown in the 6-well plate were stained with 1 μM dihydrorhodamine 123 (DHR) 20 min before the treatment with the test compound. At the end of the cultivation period the cells were detached, washed and resuspended in PBS. Analysis of ROS release was performed with a FACSCalibur and analyzed using CellQuest Pro software (Kaludjerovic 2005)."}, "C6 cells [2]": {"tested_on": "C6 cells", "test": "Nitrite accumulation (Griess reaction)", "assay_type": "cell-based, rat", "details": "24 h", "protocol": "Nitrite accumulation was measured by Griess reaction as previously described (Mijatovic et al CMLS 2004)."}, "B16 cells [3]": {"tested_on": "B16 cells", "test": "CFSE staining, tumor cell proliferation rate (flow cytometry)", "assay_type": "cell-based, mouse", "details": "B16, GIT27-NO 25 μg/ml, after 48 h; control 2.00%", "protocol": "(§1) The cells were seeded in flat-bottom 96-well plates (10^4 cells/well) in a final volume of 200 μl of culture medium, incubated overnight, then treated with different concentrations of the test compound. After 24 h incubation, cell viability was assessed using 3-4,5-dimethylthiazol-2-yl)-2,5-diphenyltetrazolium bromide (MTT) test, based on the mitochondrial-dependent reduction of MTT to formazan, or by crystal violet (CV) staining of adherent cells, as previously described (Mijatovic et al CMLS 2004). The results are presented as % of control values obtained in untreated cultures. The rate of cell proliferation was also determined using flow cytometric analysis of cells labeled with CFSE (Kang 2005). The cells were detached, added with 1.5 μM CFSE and allowed to stand for 15 min at 37° C., then washed twice and seeded in 6-well plates at 2×10^5. The cells were treated with the compound for 24 and 48 h, trypsinized and washed twice. Finally, the cells were resuspended in PBS and analyzed by flow cytometry. Green fluorescence emission from cells illuminated with excitation light of 488 nm was measured with a FACS Calibur (BD, Heidelberg, Germany) and analyzed using the CellQuest software."}, "L929 cells [4]": {"tested_on": "L929 cells", "test": "CFSE staining, tumor cell proliferation rate (flow cytometry)", "assay_type": "cell-based, mouse", "details": "L929, GIT27-NO 25 μg/ml, after 48 h; control 7.26%", "protocol": "as §1"}, "L929 cells [5]": {"tested_on": "L929 cells", "test": "LDH release assay (cell death)", "assay_type": "cell-based, mouse", "details": "L929, dose-dependent (24 h) and time-dependent (25 μg/ml), significant after 18 h", "protocol": "(§2) As a marker of necrotic cell death, the release of intracellular enzyme LDH, which mediates the conversion 2,4-dinitrophenylhydrazine into visible hydrazone precipitate in the presence of pyruvate, was measured. The cells were seeded in flat-bottom 96-well plates as indicated above and the assay was performed after 24 h incubation, as previously described (Decker et al). The percentage of dead cells was determined using the following formula: [(E−C)/(T−C)]×100, wherein E is the experimental absorbance of treated cultures measured at 492 nm, C is the absorbance of supernatants of control untreated cells, and T is the absorbance corresponding to the maximal (100%) LDH release of Triton-lysed cells. Cell cycle analysis and apoptosis detection were carried out exactly as described in the literature (Mijatovic CMLS 2005). Acidic vesicular organelles, which characterise autophagy, are stained by vital dye acridin orange. The intensity of red fluorescence is proportional to the acidity and volume of the organelles, while the cytoplasm and nucleolus emits bright green and dim red (Kanzawa 2004). […] Green (510-530 nm) and red (>650 nm) fluorescence emission from 10^4 cells illuminated with blue (488 nm) excitation light was measured with a FACS Calibur and analyzed using CellQuest software."}, "B16 cells [6]": {"tested_on": "B16 cells", "test": "Cell cycle analysis and apoptosis detection (PI staining, flow cytometry)", "assay_type": "cell-based, mouse", "details": "B16, 25 μg/ml, 24 h", "protocol": "as §2"}, "L929 cells [7]": {"tested_on": "L929 cells", "test": "Cell cycle analysis and apoptosis detection (PI staining, flow cytometry)", "assay_type": "cell-based, mouse", "details": "L929, 25 μg/ml, 24 h", "protocol": "as §2"}, "C6 cells [8]": {"tested_on": "C6 cells", "test": "Autophagy detection by acridin orange staining (flow cytometry)", "assay_type": "cell-based, rat", "details": "C6, 25 μg/ml, 24 h", "protocol": "as §2"}, "B16 cells [9]": {"tested_on": "B16 cells", "test": "Autophagy detection by acridin orange staining (flow cytometry)", "assay_type": "cell-based, mouse", "details": "B16, 25 μg/ml, 24 h", "protocol": "as §2"}, "B16 mouse melanoma cells": {"tested_on": "B16 mouse melanoma cells", "test": "MTT / CV cell viability test", "assay_type": "cell-based", "details": "24 h", "protocol": "(§3) Rat glioma cell line C6 was a kind gift from Dr. Pedro Tranque (Universidad de Castilla-La Mancha, Albacete, Spain), murine melanoma B16 cell line was a kind gift from Dr. Sinisa Radulovic (Institute for Oncology and Radiology of Serbia, Belgrade, Serbia) while mouse fibrosarcoma L929 was obtained from the European Collection of Animal Cell Cultures (Salisbury, UK). Cells were grown in HEPES-buffered RPM, 1640 medium supplemented with 5% FCS, 2 mM glutamine, 0.01% sodium pyruvate, 5×10^−5 M 2-mercaptoethanol and antibiotics (culture medium) at 37° C. in a humidified atmosphere with 5% CO2. After conventional trypsinization the cells were seeded at a concentration of 10^4 cells/well in a 96-well plate, of 2×10^5 cells/well in a 6-well plate or at 3×10^4 cells/well in a 4-well chamber slide, cultivated overnight, and then exposed to the test compound.\nas §1"}, "C6 rat astrocytoma cells": {"tested_on": "C6 rat astrocytoma cells", "test": "MTT / CV cell viability test", "assay_type": "cell-based", "details": "24 h", "protocol": "as §3, §1"}, "[10]": {"tested_on": "L929 mouse fibrosarcoma cells", "test": "MTT / CV cell viability test", "assay_type": "cell-based", "details": "24 h", "protocol": "as §3, §1"}},
  "data": [
    {"smiles": "N#Cc1c(COC(=O)CC2CC(c3ccccc3)=NO2)no[n+]1[O-]", "note": "(racemic) [GIT27-NO, (S,R)-3-phenyl-4,5 dihydro-5-isoxazole acetic acid-nitric oxide]", "values": [
      {"measurement": "intracellular production of ROS (DHR fluorescence)", "setting": "C6 cells [1]", "value": "markedly increased"},
      {"measurement": "accumulation of nitrites (NO release) in culture media alone", "setting": "C6 cells [2]; in the absence of cells", "value": "failed to release NO and to form nitrites"},
      {"measurement": "accumulation of nitrites in cell culture supernatants", "setting": "C6 cells [2]; in the presence of C6 cells", "value": "significant amount of nitrites"},
      {"measurement": "CFSE R1 = parent population", "setting": "B16 cells [3]", "value": 6.90, "unit": "%"},
      {"measurement": "CFSE R1 = parent population", "setting": "L929 cells [4]", "value": 13.23, "unit": "%"},
      {"measurement": "LDH release", "setting": "L929 cells [5]", "value": "induced LDH release"},
      {"measurement": "percentage of cells in subG compartment (hypodiploid cells)", "setting": "B16 cells [6]", "value": "< 10", "unit": "%"},
      {"measurement": "proportion of hypodiploid cells (subG compartment)", "setting": "L929 cells [7]", "value": "significantly increased proportion of hypodiploid cells"},
      {"measurement": "acidic autophagic vesicles (red fluorescence of acridin orange)", "setting": "C6 cells [8]", "value": "significantly increased the intensity of bright red fluorescence"},
      {"measurement": "acidic autophagic vesicles (red fluorescence of acridin orange)", "setting": "B16 cells [9]", "value": "significantly increased the intensity of bright red fluorescence"},
      {"measurement": "viability (MTT) of GIT27-NO treated cells in the presence of autophagic inhibitors", "setting": "B16 mouse melanoma cells; B16, GIT27-NO 25 μg/ml, 3-MA 1 mg/ml or Baf 0.5 μM", "value": "recovered"},
      {"measurement": "survival (MTT) of GIT27-NO treated cells with specific MAP kinase inhibitors", "setting": "B16 mouse melanoma cells; B16, GIT27-NO 25 μg/ml, JNK inhibitor SP600125 0.75 μM", "value": "significantly improved the survival"},
      {"measurement": "viability (MTT) of GIT27-NO treated cells with ROS scavenger NAC", "setting": "B16 mouse melanoma cells; B16, GIT27-NO 25 μg/ml, NAC 2.5 μM", "value": "restored the viability"},
      {"measurement": "viability (MTT) of GIT27-NO treated cells with PTK inhibitor tyrphostin", "setting": "B16 mouse melanoma cells; B16, GIT27-NO 25 μg/ml, tyrphostin 5 μM", "value": "almost completely restored the viability"},
      {"measurement": "cell viability (MTT, mitochondrial respiration)", "setting": "B16 mouse melanoma cells; B16 cells, different concentrations, cell number also reduced by CV", "value": "dose-dependent reduction of mitochondrial respiration"},
      {"measurement": "viability (MTT) of GIT27-NO treated cells in the presence of autophagic inhibitors", "setting": "C6 rat astrocytoma cells; C6, GIT27-NO 25 μg/ml, 3-MA 1 mg/ml or Baf 0.5 μM", "value": "recovered"},
      {"measurement": "survival (MTT) of GIT27-NO treated cells with specific MAP kinase inhibitors", "setting": "C6 rat astrocytoma cells; C6, GIT27-NO 25 μg/ml, ERK inhibitor PD98059 50 μM, JNK inhibitor SP600125 0.75 μM", "value": "significantly improved the survival"},
      {"measurement": "viability (MTT) of GIT27-NO treated cells with ROS scavenger NAC", "setting": "C6 rat astrocytoma cells; C6, GIT27-NO 25 μg/ml, NAC 2.5 μM", "value": "restored the viability"},
      {"measurement": "viability (MTT) of GIT27-NO treated cells with PTK inhibitor tyrphostin", "setting": "C6 rat astrocytoma cells; C6, GIT27-NO 25 μg/ml, tyrphostin 5 μM", "value": "almost completely restored the viability"},
      {"measurement": "viability (MTT) of GIT27-NO treated cells in parallel with NO-scavenger hemoglobin", "setting": "C6 rat astrocytoma cells; C6, hemoglobin 12.5 μM, GIT27-NO 25 mg/ml (as printed in b12)", "value": "almost completely restored"},
      {"measurement": "cell viability (MTT, mitochondrial respiration)", "setting": "C6 rat astrocytoma cells; C6 cells, different concentrations, cell number also reduced by CV", "value": "dose-dependent reduction of mitochondrial respiration"},
      {"measurement": "survival (MTT) of GIT27-NO treated cells with specific MAP kinase inhibitors", "setting": "[10]; L929, GIT27-NO 25 μg/ml, ERK inhibitor PD98059 50 μM, p38 inhibitor SB202190 20 μM", "value": "significantly improved the survival"},
      {"measurement": "viability (MTT) of GIT27-NO treated cells with ROS scavenger NAC", "setting": "[10]; L929, GIT27-NO 25 μg/ml, NAC 2.5 μM", "value": "restored the viability"},
      {"measurement": "viability (MTT) of GIT27-NO treated cells with PTK inhibitor tyrphostin", "setting": "[10]; L929, GIT27-NO 25 μg/ml, tyrphostin 5 μM", "value": "almost completely restored the viability"},
      {"measurement": "cell viability (MTT, mitochondrial respiration)", "setting": "[10]; L929 cells, different concentrations, cell number also reduced by CV", "value": "dose-dependent reduction of mitochondrial respiration"}
    ]}
  ]
}
